What was measured:
[1] = molecular target: T1, ERRα ligand binding domain (ERRα-LBD) (Homo sapiens, UniProt P11474); assay: ERRα AlphaScreen Assay; format: biochemical; settings: disruption of binding of ERRα-LBD protein to biotin-PGC1α-3 co-activator peptide; read-out: mean pIC50 (converted)
T1 construct: made in house; host or cells: E. coli
T1 sequence (P11474 193-421 limits assumed): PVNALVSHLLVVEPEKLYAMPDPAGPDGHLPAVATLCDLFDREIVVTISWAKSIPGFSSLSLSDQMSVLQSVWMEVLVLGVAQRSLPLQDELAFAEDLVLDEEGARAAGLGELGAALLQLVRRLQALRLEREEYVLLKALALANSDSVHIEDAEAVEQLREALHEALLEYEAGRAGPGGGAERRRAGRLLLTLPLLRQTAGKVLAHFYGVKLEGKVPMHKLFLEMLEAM
Description: This assay was based on the knowledge that nuclear receptors interact with cofactors in a ligand dependent matter. The sites of interaction have been mapped to LXXLL motifs that are present in the co-activator sequences. Short peptide sequences that contain the LXXLL motif mimic the behavior of full length co-activators.
The ERRα AlphaScreen Assay described here relies on the interaction of the co-activator peptide with purified bacterial- expressed ERRα ligand binding domain (ERRα-LBD); upon ligand binding, the ERRα protein can undergo a conformational change resulting in a loss of co-activator binding.
Compounds of the present invention were tested for their ability to disrupt binding of ERRα-LBD protein to co-activator peptide using AlphaScreen® Technology (Perkin Elmer). ERRα-LBD protein was expressed in E. coli as a 6×His Small Ubiquitin-like Modifier (SUMO) fusion. Bacterial expressed 6His-SUMO-ERRα-LBD protein was purified using affinity chromatography. All experiments were performed at room temperature in 384-well white non-binding plates (Greiner) using 50 mM Tris-HCl pH 7.5, 100 mM NaCl, 0.1% Pluronic F-127, 0.05% BSA and 5 mM TCEP as the buffer. Final DMSO concentration was 1% in the assay. Compounds were assayed in triplicate and: incubated with 0.81 nM ERRα-LBD protein and 10 μg/mL streptavidin donor beads and 10 μg/mL Ni-chelate acceptor beads for 1 hour at room temperature; followed by a 2-hour incubation with 15 nM biotin-PGC1α-3 peptide (QRRPCSELLKYLTTNDDPP) corresponding to amino acids 202 to 220.
The AlphaScreen signal was measured using an Envision Xcite plate reader (Perkin Elmer). Data was normalized, and curve fitting analysis was performed in GraphPad Prism 7 using a four-parameter dose-response fit.

full length ERRα = molecular target: T2, full length ERRα (Homo sapiens, UniProt P11474); assay: Full Length ERRα Reporter Gene Assay; format: cell-based; settings: SK-BR-3 cells, ERRα-RE luciferase reporter, overnight incubation; read-out: mean pIC50 (converted)
T2 construct: an over-expression construct coding full length ERRα; expressed in transfected cells; host or cells: SK-BR-3 cells, transient co-transfection of pLP2124 (pcDNA3.1/Hygro(+) background) and reporter pLP2175
T2 sequence (P11474 1-423): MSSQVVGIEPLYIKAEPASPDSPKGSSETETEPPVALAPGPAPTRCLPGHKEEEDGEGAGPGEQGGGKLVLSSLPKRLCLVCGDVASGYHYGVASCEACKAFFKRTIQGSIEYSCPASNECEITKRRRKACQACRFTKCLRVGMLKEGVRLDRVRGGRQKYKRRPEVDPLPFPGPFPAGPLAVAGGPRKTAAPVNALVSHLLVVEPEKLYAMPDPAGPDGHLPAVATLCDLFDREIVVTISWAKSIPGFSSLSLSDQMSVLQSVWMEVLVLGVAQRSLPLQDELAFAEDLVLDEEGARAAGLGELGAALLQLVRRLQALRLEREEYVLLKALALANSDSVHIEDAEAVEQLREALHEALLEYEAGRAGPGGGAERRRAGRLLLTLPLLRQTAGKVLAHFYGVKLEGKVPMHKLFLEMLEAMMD
Description: A method was established to quantitatively screen the potency of compounds with inverse agonistic activity on the nuclear receptor ERRα of the human species. The assay allows intra-cellular screening of ERRα inverse agonists in SK-BR-3 cells using an over-expression construct coding full length ERRα and a reporter construct containing an ERRα Response Element (RE) and a luciferase gene for read out. The activity is expressed in logIC50 values and can be used to determine SAR of compound families or to de-select compounds.
In this assay, reporter cells are obtained by transient co-transfection of two constructs in SK-BR-3 cells using standard transfection techniques. The first construct contains a response element of the nuclear receptor ERRα (Plasmid pLP2175, Reporter construct ERRα-RE/luc2P, cloned variant of ERRα_v2_synthRE, Switchgear Genomics, Catalog Number S900089). This sequence drives the transcription of the luciferase reporter gene in response to binding of an ERRα protein encoded by the second construct (Plasmid pLP2124: full length ERRα expression construct using pcDNA3.1/Hygro(+) as background, Invitrogen Catalog Number V87020).
The day after transfection, cells were plated into 96 well plates, the test compound was added and the plates were incubated overnight. Subsequently, the firefly luciferase activity was quantified using luciferase detection reagent and luminescence readout.
Transfection is performed on pre-seeded SK-BR-3 cells in a T175 flask. One transfected T175 flask is sufficient for seeding 3 to 4 MW96 plates the next day, depending on the confluency of the transfected cells.
Two different media are used in this protocol for cell treatment: 1) Culture medium, i.e. McCoy's 5a with phenol red (BioWhittaker Supplier Number 12-688F), 10% FBS and 1× Penstrep.; and, 2) Assay medium, i.e. McCoy's 5a Medium phenol red free (HyClone Product Code SH30270.01) with 2% Charcoal Stripped FBS and 1× Penstrep. Compound dilutions are prepared in assay medium.
Cells are seeded at least 2 days in advance to allow the cells to adhere well to flask before transfection. Cells should be 50-80% confluent at the day of transfection.
SKBR3 cells were transfected with the transcriptional reporter construct pLP2175 and the ERRα expression construct pLP2124 (as described above).
68 μL of Lipofectamine LTX transfection reagent (Invitrogen Catalog Number 15338-100) was added dropwise to 8.9 ml Opti-MEM I Reduced Serum Medium (Gibco Catalog Number 51985-026) and incubated at room temperature for 5 to 20 minutes. 8.9 ml of this reagent mixture was added to 22 μg pLP2175+22 μg pLP2124 (ratio 1:1 and total volume 10 ml), and incubated at room temperature for 25 minutes.
10 minutes before adding the transfection mix to SKBR3 cells in a T175 flask, the culture medium was refreshed with 20 mL culture medium. Subsequently, the 10 mL DNA-Opti-MEM-Lipofectamine mixture was gently added to the cells, followed by overnight (16-24 hours) incubation at 37° C. and 5% CO2.
To harvest SKBR3 cells from a T175 flask, first the medium was removed. Subsequently, cells were washed with Phosphate Buffered Saline (PBS) (Lonza), after which the PBS was removed. To dissociate the cells, 2 ml of TrypLE Express (I nvitrogen) was added to the flask, followed by incubation at 37° C. for 5 minutes. The flask was tapped until cells were detached from the bottom. Cells were collected in 8 mL of culture medium (McCoy's 5a, 10% FBS, penstrep), to achieve a single cell suspension. After cell count, cells were spun down for 5 minutes at 300 g. Next cell pellets were re-suspended to 25000 cells/80 μl assay medium (McCoy's 5a phenol red free, 2% charcoal stripped FBS, penstrep).
For compound screening, the cells were harvested (as described above). 80 μL of cell suspension (25,000 cells) was plated per well into a white, flat bottom, tissue culture treated, 96 well screening plates (Greiner). […]

Row | SMILES | IC50 [1] [nM] | IC50 (full length ERRα) [nM]
1 | COC(=O)c1cc(Oc2ccc(C3CC(=O)Nc4n[nH]cc43)cc2OC)cc(C(F)(F)F)c1 (stereo not drawn) [Example 41, methyl 3-(2-methoxy-4-{6-oxo-2H,4H,5H,6H,7H-pyrazolo[3,4-b]pyridin-4-yl}phenoxy)-5-(trifluoromethyl)benzoate] | 10 to 100 | ≤ 316
2 | COc1cc(Oc2ccc(C3CC(=O)Nc4n[nH]cc43)cc2OC)cc(C(F)(F)F)c1 (stereo not drawn) [Example 38, 4-{3-methoxy-4-[3-methoxy-5-(trifluoromethyl)phenoxy]phenyl}-2H,4H,5H,6H,7H-pyrazolo[3,4-b]pyridin-6-one] | ≤ 10 | ≤ 316
3 | COc1cc(C2CC(=O)Nc3n[nH]cc32)ccc1Oc1ccc(C)cc1C(C)(C)C (stereo not drawn) [Example 34, 4-[4-(2-tert-butyl-4-methylphenoxy)-3-methoxyphenyl]-2H,4H,5H,6H,7H-pyrazolo[3,4-b]pyridin-6-one] | ≤ 10 | ≤ 316
4 | COc1cc(C2CC(=O)Nc3n[nH]cc32)ccc1Oc1ccc(O)c(C(C)(C)C)c1 (stereo not drawn) [Example 29, 4-[4-(3-tert-butyl-4-hydroxyphenoxy)-3-methoxyphenyl]-2H,4H,5H,6H,7H-pyrazolo[3,4-b]pyridin-6-one] | ≤ 10 | ≤ 316
5 | COc1cc(C2CC(=O)Nc3n[nH]cc32)ccc1Oc1ccccc1-c1ccccc1 (stereo not drawn) [Example 24, 4-[3-methoxy-4-(2-phenylphenoxy)phenyl]-2H,4H,5H,6H,7H-pyrazolo[3,4-b]pyridin-6-one] | 100 to 1000 | 
6 | COc1cc(C2CC(=O)Nc3n[nH]cc32)ccc1Oc1ccccc1C1CCCC1 (stereo not drawn) [Example 25, 4-[4-(2-cyclopentylphenoxy)-3-methoxyphenyl]-2H,4H,5H,6H,7H-pyrazolo[3,4-b]pyridin-6-one] | 100 to 1000 | 
7 | O=C1CC(c2ccc(Oc3ccccc3S(F)(F)(F)(F)F)c(OC(F)(F)F)c2)c2c[nH]nc2N1 (stereo not drawn) [Example 58, 4-{4-[2-(pentafluoro-λ^6-sulfanyl)phenoxy]-3-(trifluoromethoxy)phenyl}-2H,4H,5H,6H,7H-pyrazolo[3,4-b]pyridin-6-one] | 10 to 100 | 
8 | COC(=O)c1ccc(Oc2ccc(C3CC(=O)Nc4n[nH]cc43)cc2OC)c2ccccc12 (stereo not drawn) [Example 36, methyl 4-(2-methoxy-4-{6-oxo-2H,4H,5H,6H,7H-pyrazolo[3,4-b]pyridin-4-yl}phenoxy)naphthalene-1-carboxylate] | ≤ 10 | 
9 | COc1cc(C2CC(=O)Nc3n[nH]cc32)ccc1Oc1ccc(C#N)c2ccccc12 (stereo not drawn) [Example 46, 4-(2-methoxy-4-{6-oxo-2H,4H,5H,6H,7H-pyrazolo[3,4-b]pyridin-4-yl}phenoxy)naphthalene-1-carbonitrile] | 10 to 100 | 

Next, values leading:

Row | IC50 [1] [nM] | IC50 (full length ERRα) [nM] | SMILES
10 | ≤ 10 | ≤ 316 | COc1cc(-c2cc(=O)[nH]c3n[nH]cc23)ccc1Oc1ccc(C)cc1C(C)(C)C [Example 69, 4-[4-(2-tert-butyl-4-methylphenoxy)-3-methoxyphenyl]-2H,6H,7H-pyrazolo[3,4-b]pyridin-6-one]
11 | ≤ 10 | ≤ 316 | COc1cc(C2CC(=O)Nc3n[nH]cc32)ccc1Oc1cc(C)cc(C(F)(F)F)c1 (stereo not drawn) [Example 63, 4-{3-methoxy-4-[3-methyl-5-(trifluoromethyl)phenoxy]phenyl}-2H,4H,5H,6H,7H-pyrazolo[3,4-b]pyridin-6-one]
12 | ≤ 10 | ≤ 316 | COc1ccc(Oc2ccc(-c3cc(=O)[nH]c4n[nH]cc34)cc2OC)c(C(C)(C)C)c1 [Example 68, 4-[4-(2-tert-butyl-4-methoxyphenoxy)-3-methoxyphenyl]-2H,6H,7H-pyrazolo[3,4-b]pyridin-6-one]
13 | 100 to 1000 |  | O=C1CC(c2ccc(Oc3ccccc3S(F)(F)(F)(F)F)cc2)c2c[nH]nc2N1 (stereo not drawn) [Example 59, 4-{4-[2-(pentafluoro-λ^6-sulfanyl)phenoxy]phenyl}-2H,4H,5H,6H,7H-pyrazolo[3,4-b]pyridin-6-one]
14 | 10 to 100 |  | COc1cc(C2CC(=O)Nc3n[nH]cc32)ccc1Oc1ccc(C(F)(F)F)cc1C(F)F (stereo not drawn) [Example 78, 4-{4-[2-(difluoromethyl)-4-(trifluoromethyl)phenoxy]-3-methoxyphenyl}-2H,4H,5H,6H,7H-pyrazolo[3,4-b]pyridin-6-one]
15 | 100 to 1000 |  | COc1cc(C2CC(=O)Nc3n[nH]cc32)ccc1Oc1cc(C(F)(F)F)cc(C(F)(F)F)c1 (single isomer, unassigned; (+)) [Example 79, (+)-4-{4-[3,5-bis(trifluoromethyl)phenoxy]-3-methoxyphenyl}-2H,4H,5H,6H,7H-pyrazolo[3,4-b]pyridin-6-one]
16 | 10 to 100 |  | COc1cc(C2CC(=O)Nc3c[nH]cc32)ccc1Oc1cc(C(F)(F)F)cc(C(F)(F)F)c1 (stereo not drawn) [Example 76, 4-{4-[3,5-bis(trifluoromethyl)phenoxy]-3-methoxyphenyl},2H,3H,4H,6H-pyrrolo[3,4-b]pyridin-2-one]
17 | 10 to 100 |  | COc1cc(C2CC(=O)Nc3n[nH]cc32)ccc1Oc1cc(C)cc(C)c1 (single isomer, unassigned; (-)) [Example 82, (−)-4-[4-(3,5-dimethylphenoxy)-3-methoxyphenyl]-2H,4H,5H,6H,7H-pyrazolo[3,4-b]pyridin-6-one]
